Experimental findings from patent publication US20250032446A1, “METHODS AND COMPOSITIONS FOR THE BIOSYNTHESIS AND USE OF DEMETHYLATED POLYMETHOXY FLAVONES” (RUTGERS, THE STATE UNIVERSITY OF NEW JERSEY, priority 2021, published 2025) are described below.

Molecules are shown by their SMILES.

One series relates to PPARγ. The series is described as follows: Immunoblotting, PPARγ expression. It is filed as cell-based, mouse. The conditions noted are these: early treatment, day 3. On the procedure: (§1) Primary antibodies which include AMPK-amAb, and Phospho-AMPKa(p-AMPKa) (Thr172) mAb, Acetyl-CoA Carboxylase (ACC) mAb, fatty acid synthase mAb RAs-related Nuclear protein (Ran) pAb, PPARc mAb, and C/EBPa pAb were all obtained from Cell Signaling Technology (Danvers, MA, USA). They were diluted by 1000 times for immunoblotting analyses.
(§2) At day 3 or day 8, cells are harvested with scraper and homogenized with lysis buffer containing 0.5 mM PMSF, 1 mM mini-complete protease inhibitor cocktail (Sigma, St. Louis, MO, USA) and phosphatase inhibitor cocktail (Sigma, St. Louis, MO, USA). Lysates are syringed with 26 gauge ½ in. needles on ice and then applied for centrifugation at 14,000g for 15 min at 4° C. Protein concentration of cell lysates are determined by using Protein and Protein Broad Range (BR) Assay Kits (Thermofisher, Waltham, MA USA) according to the venture's protocol. Lysates are then stored at −80° C. or immediately are subjected to sodium dodecyl sulfate polyacrylamide gel electrophoresis (SDS-PAGE). For the SDS-PAGE, cell lysates are mixed with loading buffer and heated at 95° C. for 5 min prior to electrophoresis. […] Quantification is performed by measuring band intensity using ImageJ software and calculating the ratio of protein of interesting to RAN the internal loading control.
A general note: In western blotting, separated proteins are transferred to a membrane and probed.

The next series has as its system ACC. As to the kind of experiment: Immunoblotting, ACC expression. The class given is cell-based, mouse. The conditions noted are these: late phase treatment group, day 8. The procedure:
as §1, §2

The nature of series [1]: Effect of pH of fermented media on extracted content of M2 and M3 (stability). The class given is physicochemical. The procedure: Lastly, the fermented media was adjusted to pH 2.0, 5.0, 6.5, 7.0, 8.0 and 10.0 using HCl or NaOH. Subsequently, 3 extractions were conducted, and the sample was dried, weighed and analyzed using HPLC. The amount of extracted metabolites were compared and used to evaluate the effect of pH on extraction.

A further series has as its system 3T3-L1 cells. The series is described as follows: Flow cytometry with PI staining, cell cycle distribution. It is filed as cell-based, mouse. On the procedure: 3T3-L1 cells were seeded in six-well plates at a density of 3-5×10^5/well. After 2 days of confluency, cells were treated with DM in the absence or presence of several doses of nobiletin or […] for 24h. Both detached and adherent cells were harvested by trypsinization and washed with phosphate buffered saline (PBS). Cells were fixed with 70% ice cold ethanol and placed at 4° C. overnight. After removal of ethanol, cells were stained with propidium iodide containing RNAse ((Carlsbad, CA)) for 30 min in the dark. Fluorescence cells analysis was carried out by using an Accuri C6 flow cytometer. Data were processed using Flowjo_10 software. Each experiment was performed 3 times to reduce variance.

The subject of series [2] is differentiating 3T3-L1 adipocytes. The series is described as follows: Oil Red O staining, lipid accumulation. The class given is cell-based, mouse. The procedure: Two days after confluence, designated as day 0, adipocyte differentiation was initiated by culturing the cells for three days in differentiation medium (DM) which contained 10 μg/mL insulin, 0.5 mM IBMX, and 1 μM dexamethasone in complete culture medium. At day 3, the medium was replaced with DMEM, containing 10 μg/mL insulin. The medium was changed every two days until day 8. Cells were harvested on day 3 or day 8.
For treatment, nobiletin and the mixture of 6- and 7-OH-nobiletin (M67N) in a 1:49 ratio were first dissolved in dimethyl sulphoxide (DMSO) to make stock solution (5 mM to 100 mM). (FIG. 20) The stock solution was then diluted by 1000 times with culture medium to designated concentrations. Cells cultured in full DMEM was set as negative control while cells treated with DM with 0.1% DMSO as positive control.
On day 8, cell layers were washed with 1×PBS and fixed with 10% paraformaldehyde (Sigma, St. Louis, MO, USA). After 15 minutes' fixation, the medium in each well was decanted and placed in a fume hood for complete dryness. Afterwards, cells were subjected to Oil Red O staining for 30 min, which was followed by immediate rinse in water. The intracellular lipid droplets were checked and pictures were captured on Olympus FSX100 Microscope. For the quantification of intracellular lipids, dyes were dissolved in 4% NP-40/isopropanol and the absorbance was measured at 520 nm by a microplate reader.

For orientation: inhibition means the change of the read-out against control, counted positive when it falls. For `COc1ccc(-c2cc(=O)c3c(OC)c(O)c(OC)c(OC)c3o2)cc1OC` [6-OH-nobiletin, 6-hydroxy-5,7,8,3′,4′-pentamethoxyflavone], the “expression level of PPARγ” value with PPARγ is “dose-dependently suppressed”. Besides, in the series on ACC, the “expression of ACC” value was “significantly suppressed their expression”. The “total amount of extracted metabolite” value stood at 123.9 ± 4.6 µg/mL in series [1] (fermented media at pH 2.0 (first of four values, pH 2.0 to 7.0)); 125.6 ± 3.2 µg/mL in series [1] (fermented media at pH 5.0 (second of four values)); 125.8 ± 1.9 µg/mL in series [1] (fermented media at pH 6.5 (third of four values)); 125.9 ± 1.2 µg/mL in series [1] (fermented media at pH 7.0 (fourth of four values)). For the same molecule, the “content of extracted metabolite” value came out at 110 ± 1.7 µg/mL in series [1] (pH 8.0) and 109 ± 2.6 µg/mL in series [1] (pH 10.0). The “stability at alkaline condition” value in series [1] (pH 8.0 and 10.0) was “not stable at alkaline condition”. Moreover, in the series with 3T3-L1 cells (5 μM), the “cells in S phase” value is 42%. The “preadipocytes in G2/M phase” value in the series with 3T3-L1 cells (5 μM) came out at 40%. Further, in the series on 3T3-L1 cells (50 μM), the “population in G2/M phase” value worked out at 20%. Moreover, in the series with 3T3-L1 cells (50 μM), the “population in S phase” value is 60%. Further, the “effect on cell cycle progression” value with 3T3-L1 cells (serial doses in differentiation medium) is “significantly delayed the progression of the cell cycle and increased the S population in a dose-dependent manner”. In addition, the intracellular lipid content in series [2] (15 μM, relative to positive control) was 69.8±2.1%. Also, in series [2] (50 μM, early phase treatment (day 0 to day 3)), the “decrease of lipid content” value was 50%. Further, the “lipid formation / accumulation reduced to” value in series [2] (50 μM, relative to positive control) is on record as 24.3±4.2%. Moreover, the inhibition at 50 µM in series [2] (Mus musculus, 3T3-L1, 50 μM, late-phase treatment (day 4 to day 8), read-out: inhibition of lipid accumulation) was 72%. In addition, the “effect of early phase and late phase treatment on lipid accumulation” value in series [2] (early phase day 0-3, late phase day 4-8) was “suppressed the lipid accumulation in a dose-dependent matter”. Besides, the “effect on intracellular lipid accumulation” value in series [2] (various concentrations, Oil Red O at day 8) was “obvious suppressive effect on intracellular lipid accumulation”.
